The target of test [1] is T1, CXCR6 (Homo sapiens, UniProt O00574). Kind of test: β-arrestin recruitment inhibition in CXCR6-expressing CHO-K1 cells (PathHunter, DiscoveRx). The test is classed as cell-based. Here is the method: (§1) Compounds of Formula (I), (Ia), (Ib), (Ic), (Id), and (II) are tested for their ability to inhibit β-arrestin recruitment in CXCR6-expressing CHO-K1 cells using the β-galactosidase PathHunter Enzyme Complementation Platform from DiscoveRx. A detailed protocol for this assay is available on PubChem (AIDs 624129). Accordingly, 800 CHO-K1 cells expressing CXCR6 (DiscoveRx, Cat #93-0205C2) are seeded into the wells of a white opaque 1536-well plate, centrifuged, and incubated overnight at 37° C., 5% CO2. The next day, compounds of Formula (I), (Ia), (Ib), (Ic), (Id), and (II) and controls (CXCL16 (10 nM) or DMSO) are dispensed into wells and incubated for 1.5 h. The assay is terminated upon addition of lysis buffer, detection substrate, and enzyme. Luminescence is read on the Envision plate reader 1 h post-termination. All compounds are tested in a 10 pt dose-response curve in duplicate. Compounds will also be tested in a CXCR6-dependent cAMP assay using the Lance Ultra assay from PerkinElmer. Accordingly, 2 uL CXCR6-expressing cells are suspended in assay media (OptiMEM; 2% FBS; 1×P/S) and plated at 500 cells/well in 1536-well, white, TC plates and grown overnight at 37° C.; 5% CO2. 40 nL test compounds of Formula (I), (Ia), (Ib), (Ic), (Id), and (II) are added to cells using ECHO dispenser. 2 uL of 2.5 mM forskolin in stimulation buffer (HBSS; 5 mM HEPES; 0.1% BSA; 0.1 mM RO-20-1724) with or without 20 nM CXCL16 is transferred to wells using BioRAPTR. Wells treated with forskolin and CXCL16 serve as negative controls and wells treated with forskolin only serve as positive controls. Cells are incubated at room temperature for 30 min followed by addition of 2 uL each EU-cAMP tracer and ULight anti-cAMP Ab in detection buffer according to manufacturer's instruction. After 30 min at room temperature, TR-FRET is read using EnVision plate reader.

Test [2] addresses T1, CXCR6. Put plainly: CXCR6-dependent cAMP assay (Lance Ultra, PerkinElmer). The test is classed as cell-based. To be noted: CXCR6-expressing cells, forskolin + CXCL16; Table B-1. Here is the method: as §1
Test [3] has as its system SK-Hep-1 cancer xenograft. Put plainly: SK-Hep-1 cancer xenograft tumor growth. The test is classed as in vivo. To be noted: compared to control; FIG. 1 legend.
The mark [4] stands for this setting: CXCR6-expressing CHO-K1 cells, Table B-1, read-out: IC50 (β-arrestin).

Each structure is given as a SMILES string. Where only a bound is given, the exact number is not on record here.

T1 sequence (O00574 whole entry): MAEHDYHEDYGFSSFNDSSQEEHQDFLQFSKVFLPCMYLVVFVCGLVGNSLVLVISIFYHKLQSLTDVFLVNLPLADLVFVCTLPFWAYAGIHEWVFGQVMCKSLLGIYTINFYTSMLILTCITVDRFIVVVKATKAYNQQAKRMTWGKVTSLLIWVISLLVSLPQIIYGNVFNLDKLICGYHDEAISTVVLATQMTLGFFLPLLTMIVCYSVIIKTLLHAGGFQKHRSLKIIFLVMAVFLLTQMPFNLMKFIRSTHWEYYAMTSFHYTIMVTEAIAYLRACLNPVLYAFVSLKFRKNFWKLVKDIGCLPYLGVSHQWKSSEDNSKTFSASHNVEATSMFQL

Consider `CCC(C)Oc1ccc(C(=O)N[C@@H]2C[C@H]3CCC[C@@H](C2)N3Cc2nc3c(C(F)(F)F)cccc3s2)cc1OC` (stereo partly drawn) [4-(sec-butoxy)-3-methoxy-N-((1R,3s,5S)-9-((4-(trifluoromethyl)benzo[d]thiazol-2-yl)methyl)-9-azabicyclo[3.3.1]nonan-3-yl)benzamide], for which, at CXCR6 [1] (setting [4]), the IC50 is < 100 nM.
The molecule `COc1cc(C(=O)N[C@@H]2C[C@H]3CCC[C@@H](C2)N3Cc2nc3c(C(F)(F)F)cccc3s2)ccc1OC(C)C` [4-isopropoxy-3-methoxy-N-((1R,3s,5S)-9-((4-(trifluoromethyl)benzo[d]thiazol-2-yl)methyl)-9-azabicyclo[3.3.1]nonan-3-yl)benzamide] had an IC50 at CXCR6 [1] of 100 to 2000 nM.
The molecule `COc1cc(C(=O)N2C[C@H]3CCC[C@@H](C2)N3Cc2nc3c(C(F)(F)F)cccc3s2)cc(OC)c1OC` [((1R,5S)-9-((4-(trifluoromethyl)benzo[d]thiazol-2-yl)methyl)-3,9-diazabicyclo[3.3.1]nonan-3-yl)(3,4,5-trimethoxyphenyl)methanone] registered an IC50 on CXCR6 [1] of 100 to 2000 nM.
The same measure, in the same setting: as for `COc1cc(C(=O)N[C@@H]2C[C@H]3CCC[C@@H](C2)N3Cc2nc3c(C(F)(F)F)cccc3s2)cc(OC)c1OC` [Compound 1, 3,4,5-trimethoxy-N-((1R,3s,5S)-9-((4-(trifluoromethyl)benzo[d]thiazol-2-yl)methyl)-9-azabicyclo[3.3.1]nonan-3-yl)benzamide], the figure is < 100 nM.
Consider `COc1cc(C(=O)N[C@@H]2C[C@H]3CCC[C@@H](C2)N3CC(=O)Nc2ccccc2Cl)cc(OC)c1OC` [N-((1R,3s,5S)-9-(2-((2-chlorophenyl)amino)-2-oxoethyl)-9-azabicyclo[3.3.1]nonan-3-yl)-3,4,5-trimethoxybenzamide], for which the figures for the IC50 at CXCR6 [2] and at CXCR6 [1] (setting [4]) were 2000 to 5000 nM and 100 to 2000 nM, respectively.
On to `COc1cc(C(=O)N[C@@H]2C[C@H]3CCC[C@@H](C2)N3Cc2nc3c(Cl)c(Cl)ccc3s2)cc(OC)c1OC` [N-((1R,3s,5S)-9-((4,5-dichlorobenzo[d]thiazol-2-yl)methyl)-9-azabicyclo[3.3.1]nonan-3-yl)-3,4,5-trimethoxybenzamide], for which the IC50 against CXCR6 [1] is < 100 nM.
On to `COc1cc(C(=O)N[C@@H]2C[C@H]3CCC[C@@H](C2)N3Cc2nc3c(Cl)cccc3s2)cc(OC)c1OC` [N-((1R,3s,5S)-9-((4-chlorobenzo[d]thiazol-2-yl)methyl)-9-azabicyclo[3.3.1]nonan-3-yl)-3,4,5-trimethoxybenzamide], for which the half-inhibitory concentration (IC50) on CXCR6 [2] and at CXCR6 [1] (setting [4]) was 100 to 2000 nM in each case.
In the case of `COc1cc(C(=O)N[C@@H]2C[C@H]3CCC[C@@H](C2)N3Cc2cc3ccccc3s2)cc(OC)c1OC` [N-((1R,3s,5S)-9-(benzo[b]thiophen-2-ylmethyl)-9-azabicyclo[3.3.1]nonan-3-yl)-3,4,5-trimethoxybenzamide], the IC50 fell in the range of 5000 to 20000 nM on CXCR6 [2] and 100 to 2000 nM at CXCR6 [1] (setting [4]).
Consider `O=P1(N(CCCl)CCCl)NCCCO1` (stereo not drawn) [cyclophosphamide], for which the “tumor growth, SK-Hep-1 cancer xenograft” value in test [3] was “tumor growth reduction”.

For the origin of these results see patent US20220402908A1, “CXCR6 INHIBITORS AND METHODS OF USE” (Sanford Burnham Prebys Medical Discovery Institute, priority 2019, published 2022).
